Experiments:
rat EP4 receptor = rat EP4 receptor (Rattus norvegicus, UniProt P43114); assay: Evaluation test on EP4 receptor affinity in rat ([3H]PGE2 receptor binding test, membrane fraction); parameters: expressed in transfected cells; host or cells: HEK293 cells, transient transfection (Lipofectamine 2000); membrane fraction used; details: [3H]PGE2 0.3 nM, membrane fraction of rat EP4 expressing HEK293 cells
Procedure: A rat EP4 receptor cDNA was subcloned into an expression vector (pcDNA3.1-V5-His-topo, manufactured by Invitrogen Corporation) to prepare a rat EP4 expression vector. HEK293 cells were cultured in a collagen type I-treated 15 cm dish (manufactured by Asahi Techno Glass Co. Ltd.) to a confluence of 70%. An Opti-MEM culture medium at 1.2 mL/dish and a transfection reagent (Lipofectamine 2000, manufactured by Invitrogen Corporation) at 60 μL/dish were mixed, followed by being left to stand at room temperature for 5 minutes. Then, the rat EP4 receptor expression vector at 15 μg/dish was added thereto, followed by being left to stand at room temperature for 30 minutes. The liquid mixture of the transfection reagent was added into the dish, followed by culturing for 20 to 24 hours. The cell culture was carried out in a CO2 incubator (37° C., 5% CO2).
The culture medium was removed by suction, 10 mL of cooled PBS was added thereto per 15 cm dish, and the cells were scraped using a cell scraper. After washed with cooled PBS (1,200 rpm, 4° C., 5 minutes), suspended in 6 mL/dish of cooled 20 mM Tris-HCl (pH 7.4; manufactured by Nacalai Tesque Inc., 5 mM EDTA included) and homogenized using a Polytron, the homogenate was centrifuged (26,000 rpm, 20 minutes, 4° C.). The obtained precipitate was resuspended in cooled 20 mM Tris-HCl and homogenized again using a Polytron, and the homogenate was centrifuged (26,000 rpm, 20 minutes, 4° C.). The obtained precipitate was resuspended in 50 mM HEPES (pH 7.5; manufactured by Dojindo Laboratories) at 1 mL per dish, homogenized using a Polytron, and freeze-stored at −80° C. as a membrane fraction. At this time, a part thereof was used for the measurement of the protein concentration. Measurement of the protein concentration was carried out using a Protein assay stain (manufactured by Bio-Rad Laboratories) in accordance with a standard Protocol as appended in duplicate.
[^3H]PGE2 50 μL (final concentration 0.3 nM; manufactured by Perkin Elmer Co., Ltd.), 100 μL (20 μg/well) of the membrane fraction prepared from the rat EP4 expression cell, and 50 μL of a test compound were mixed in a 96-well microplate (manufactured by Sumitomo Bakelite Co., Ltd.), incubated at room temperature for 1 hour, then filtered by suction on a microplate (UniFilter-96 GF/B, manufactured by Perkin Elmer Co., Ltd.) using a cell harvester (FilterMate Harvester, manufactured by Perkin Elmer Co., Ltd.), and washed three times with 300 μL/well of a cooled assay buffer (50 mM HEPES, 10 mM MgCl2). Dilution of [^3H]PGE2 and the membrane fraction was carried out using the assay buffer, and dilution of the test compound and the unlabeled PGE2 was carried out using dimethyl sulfoxide and the assay buffer. The UniFilter-96 GF/B was treated by preliminarily washing twice with 200 μL/well of the cooled assay buffer. The UniFilter-96 GF/B after filtration was dried in a dryer overnight, 50 μL/well of a liquid scintillation cocktail (MicroScint20, manufactured by Perkin Elmer Co., Ltd.) was added thereto, and the radioactivity was then measured using a liquid scintillation counter for a microplate (TopCount, manufactured by Perkin Elmer Co., Ltd.). For measurement of the non-specific binding, an unlabeled PGE2 (final concentration 1 μM; manufactured by Cayman Chemical Company) was added. All of the measurements were carried out in duplicate, and the specific binding amount was determined by subtracting the non-specific binding amount from the total binding amount.
According to the test method as described above, the rat EP4 receptor affinity (Ki) of the compound of the formula (I) was measured. […] In this connection, Ex means Example Compound number.

[1] = system: LPS-induced TNF-α production in THP-1 cells; assay: Inhibitory action on LPS-induced TNF-α production in THP-1 cells; assay type: cell-based; details: Homo sapiens, 3 hours after LPS, ELISA
Procedure: Human monocytic cell line THP-1 cells were suspended in an assay medium (PRMI-1640 containing 10% fetal bovine serum, 100 unit/mL penicillin G sodium, and 100 μg/mL streptomycin sulfate), and seeded onto a 96-well plate at 1×10^5 cells/well. 50 μL/well of an assay medium containing a test compound was added thereto, followed by incubation at 37° C. for 30 minutes. Further, 50 μL/well of an assay medium containing 1 to 5 μg/mL of LPS was added thereto, and the TNF-α concentration in the assay medium of each well after 3 hours was measured. The measurement was carried out by means of a standard ELISA method. A 96-well plate which had been coated overnight with an anti-human TNF monoclonal antibody (clone: MAb1) (manufactured by Becton, Dickinson and Company) as a capture antibody was washed with a wash buffer (PBS containing 0.05% Tween-20), and PBS containing 10% fetal bovine serum was incubated at room temperature for 1 hour to perform blocking. After washing with a wash buffer, 100 μL/well of the assay medium to be measured was incubated at 4° C. overnight. As the standard material to be measured, a recombinant human TNF (manufactured by Becton, Dickinson and Company) was used. After washing with a wash buffer, 100 μL of a biotinylated anti-human TNF monoclonal antibody (clone: MAb11) as a detection antibody was treated at room temperature for 1 hour. After washing with a wash buffer, it was treated with 100 μL/well of an HRP-labeled Streptavidin (manufactured by Zymed Laboratories, Inc.) at room temperature for 30 minutes, and washed again. Treatment was conducted using 100 μL/well of a TMB (3,3′,5,5′-tetramethylbenzidine) substrate liquid at room temperature for 20 minutes in a dark room. A 2 M sulfuric acid was added thereto at 50 μL/well to stop the reaction, and an absorbance at 450 nm/570 nm was measured by means of a plate reader SPECRA max (manufactured by Molecular Devices Inc.).

TNF-α production = assay: In vivo TNF-α production inhibiting action in rat (LPS-induced plasma TNF-α); parameters: species or system SD male rats; details: oral administration 1 hour before LPS (10 μg/kg i.v.), plasma TNF-α 90 minutes after LPS
Procedure: LPS (10 μg/kg) was administered to caudal veins of SD male rats, and after 90 minutes from the administration, the heparin blood was collected from the abdominal vena cava to prepare a plasma. The test compound was orally administered 1 hour before the administration of LPS. The amount of TNF-α in the plasma was measured using a BD OptEIA rat TNF ELISA set (manufactured by Becton, Dickinson and Company) according to the attached method. The inhibitory rate by the test compound was determined from the amount of TNF-α in plasma in a control group (administered with a solvent).

rat EP4 receptor, sequence (P43114 whole entry): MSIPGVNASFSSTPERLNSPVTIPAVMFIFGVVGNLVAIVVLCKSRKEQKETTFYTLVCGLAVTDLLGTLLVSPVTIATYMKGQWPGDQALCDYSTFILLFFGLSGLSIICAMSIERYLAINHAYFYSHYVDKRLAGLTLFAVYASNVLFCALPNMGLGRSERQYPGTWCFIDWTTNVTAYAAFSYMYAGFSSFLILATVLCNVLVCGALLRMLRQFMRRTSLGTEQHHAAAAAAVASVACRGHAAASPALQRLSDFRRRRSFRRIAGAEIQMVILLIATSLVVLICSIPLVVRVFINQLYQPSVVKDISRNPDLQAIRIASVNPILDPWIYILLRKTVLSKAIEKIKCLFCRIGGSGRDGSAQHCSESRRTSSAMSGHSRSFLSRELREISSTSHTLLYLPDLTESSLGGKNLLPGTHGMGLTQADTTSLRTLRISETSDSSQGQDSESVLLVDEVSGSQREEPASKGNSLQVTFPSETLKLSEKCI

Structure (SMILES) | Ki (rat EP4 receptor) [nM] | IC50 [1] [nM] | ED50 (TNF-α production) [mg/kg]
CC(C)c1ccc2c(c1)N(Cc1c(Cl)cc(Cl)c(=O)n1CCc1ccc(C(=O)O)cc1)CC2 [Example 143] | 11 | – | –
CCc1ccc2c(c1)N(Cc1c(Cl)cc(Cl)c(=O)n1CCc1ccc(C(=O)O)cc1)CC2 [Example 15, 4-(2-{3,5-dichloro-6-[(6-ethyl-2,3-dihydro-1H-indol-1-yl)methyl]-2-oxopyridin-1(2H)-yl}ethyl)benzoic acid] | 3.6 | – | –
Cc1cc(C2CC2)c(CN2CCC[C@@H]2CC(C)C)n(CCc2ccc(C(=O)O)cc2)c1=O [Ex 27] | 25 | 12 | –
Cc1ccc2c(c1)CCCN2Cc1c(Cl)cc(Cl)c(=O)n1CCc1ccc(C(=O)O)cc1 [Example 145] | 19 | – | –
CC(C)C[C@H]1CCCN1Cc1c(Cl)cc(Cl)c(=O)n1CCc1ccc(C(=O)O)cc1 [Ex 18] | 4.4 | – | –
CCC[C@H]1CCCN1Cc1c(Cl)cc(Cl)c(=O)n1CCc1ccc(-c2nnn[nH]2)cc1 [Ex 42] | 0.52 | 15 | 0.076
Cc1cc(C)c(=O)n(CCc2ccc(-c3n[nH]c(=O)o3)cc2)c1CN1CCC[C@@H]1CC(C)C [Example 345] | 2.2 | 13 | 1.9
Cc1cc(C2CC2)c(CN2CCC[C@@H]2CC(C)C)n(CCc2ccc(-c3n[nH]c(=O)o3)cc2)c1=O [Example 346] | 2.8 | – | 2
Cc1cccc2c1N(Cc1c(Cl)cc(Cl)c(=O)n1CCc1ccc(C(=O)O)cc1)CC2 [Example 139] | 12 | – | –
O=C(O)c1ccc(CCn2c(CN3CCc4ccc(OC(F)(F)F)cc43)c(Cl)cc(Cl)c2=O)cc1 [Example 152] | 5.1 | – | –
CCCC[C@H]1CCCN1Cc1c(Cl)cc(Cl)c(=O)n1CCc1ccc(C(=O)O)cc1 [Example 158] | 8.6 | – | –
Cc1c(F)ccc2c1N(Cc1c(Cl)cc(Cl)c(=O)n1CCc1ccc(C(=O)O)cc1)CC2 [Example 149] | 9.5 | 2.8 | –
CN(Cc1c(Cl)cc(Cl)c(=O)n1CCc1ccc(C(=O)O)cc1)C1CCCC1 [Ex 26] | – | 12 | –
O=C(O)c1ccc(CCn2c(CN3CCc4ccccc43)c(Cl)cc(Cl)c2=O)cc1 [Example 16, 4-{2-[3,5-dichloro-6-(2,3-dihydro-1H-indol-1-ylmethyl)-2-oxopyridin-1(2H)-yl]ethyl}benzoic acid] | 13 | – | –
O=C(O)c1ccc(CCn2c(CN3CCc4ccc(Cl)cc43)c(Cl)cc(Cl)c2=O)cc1 [Example 150] | 15 | – | –
Cc1ccc2c(c1)N(Cc1c(Cl)cc(Cl)c(=O)n1CCc1ccc(C(=O)O)cc1)CC2 [Example 138] | 7.7 | – | –
O=C(O)c1ccc(CCn2c(CN3CCc4ccc(C(F)(F)F)cc43)c(Cl)cc(Cl)c2=O)cc1 [Example 153] | 4.9 | – | –
CCc1cccc2c1N(Cc1c(Cl)cc(Cl)c(=O)n1CCc1ccc(C(=O)O)cc1)CC2 [Example 13] | 24 | 7.4 | –

Now from value to compound, other results behind:

Ki (rat EP4 receptor) [nM] | IC50 [1] [nM] | Structure (SMILES) | ED50 (TNF-α production) [mg/kg]
4.7 | – | CC(C)c1cccc(N(C)Cc2c(Cl)cc(Cl)c(=O)n2CCc2ccc(C(=O)O)cc2)c1 [Example 5, 4-{2-[3,5-dichloro-6-{[(3-isopropylphenyl)(methyl)amino]methyl}-2-oxopyridin-1(2H)-yl]ethyl}benzoic acid] | –
11 | – | CCc1cccc(NCc2c(Cl)cc(Cl)c(=O)n2CCc2ccc(C(=O)O)cc2)c1 [Example 97] | –
16 | – | CN(Cc1c(Cl)cc(Cl)c(=O)n1CCc1ccc(C(=O)O)cc1)c1cccc(F)c1 [Example 122] | –
5.4 | – | CN(Cc1c(Cl)cc(Cl)c(=O)n1CCc1ccc(C(=O)O)cc1)c1cccc(OC(F)(F)F)c1 [Ex 19] | –
4.1 | – | COc1ccc2c(c1)N(Cc1c(Cl)cc(Cl)c(=O)n1CCc1ccc(C(=O)O)cc1)CC2 [Example 130] | –
39 | – | COc1cccc2c1N(Cc1c(Cl)cc(Cl)c(=O)n1CCc1ccc(C(=O)O)cc1)CC2 [Example 146] | –
21 | – | CCN(Cc1c(Cl)cc(Cl)c(=O)n1CCc1ccc(C(=O)O)cc1)c1cccc(C(C)C)c1 [Example 123] | –
11 | – | Cc1cccc(N(C)Cc2c(Cl)cc(Cl)c(=O)n2CCc2ccc(C(=O)O)cc2)c1 [Example 6, 4-{2-[3,5-dichloro-6-{[methyl(3-methylphenyl)amino]methyl}-2-oxopyridin-1(2H)-yl]ethyl}benzoic acid] | –
6.2 | – | COc1cccc(N(C)Cc2c(Cl)cc(Cl)c(=O)n2CCc2ccc(C(=O)O)cc2)c1 [Example 124] | –
9.8 | – | CC(C)c1cccc(NCc2c(Cl)cc(Cl)c(=O)n2CCc2ccc(C(=O)O)cc2)c1 [Example 91] | –
25 | – | O=C(O)c1ccc(CCn2c(CNc3cccc(C(F)(F)F)c3)c(Cl)cc(Cl)c2=O)cc1 [Example 99] | –
29 | – | COc1cc(OC)cc(N(C)Cc2c(Cl)cc(Cl)c(=O)n2CCc2ccc(C(=O)O)cc2)c1 [Example 125] | –

— US20110082133A1, “PYRIDONE COMPOUNDS” (priority 2008, published 2011)
